From ChEMBL document CHEMBL1926599, “Bis(oxyphenylene)benzimidazoles: a novel class of anti-Plasmodium falciparum agents” (Bioorg Med Chem, 2011) come the findings set out here.

Structures are written as SMILES. Active and inactive are the calls of the source. The rule behind the calls is not given here.

The subject of one data set is Plasmodium falciparum. Nature of the data set: Antiplasmodial activity against chloroquine and pyrimethamine-resistant Plasmodium falciparum K1 assessed as inhibition of [3H]hypoxanthine incorporation incubated for 48 hrs prior to [3H] hypoxanthine addition measured after 24 hrs by liquid scintillation counting. It is filed as functional, organism-based.
For another data set, the system named is Leishmania donovani. Nature of the data set: Antileishmanial activity against Leishmania donovani MHOM-ET-67/L82 after 72 hrs by resazurin-based spectrophotometric assay. The format is functional, organism-based. To be noted: MHOM-ET-67/L82, 72 h. On the technique in general: Resazurin is reduced to fluorescent resorufin, in cell work by metabolically active cells.

A short description of data set [1]: Selectivity ratio of IC50 for rat L6 cells to IC50 for Plasmodium falciparum K1. It is filed as ADME, cell-based. To be noted: read-out: Ratio IC50.
In another data set the test system is Entamoeba histolytica. Nature of the data set: Antiprotozoal activity against Entamoeba histolytica Hk-9 trophozoites after 70 hrs by resazurin-based spectrophotometric assay. The format is functional, organism-based. To be noted: Hk-9, 70 h.
Data set [2] in a line: Selectivity ratio of IC50 for rat L6 cells to IC50 for bloodstream form of Trypanosoma brucei rhodesiense STIB 900. It is filed as ADME, cell-based. To be noted: read-out: Ratio IC50.
The next data set relates to Giardia intestinalis. Nature of the data set: Antiprotozoal activity against Giardia intestinalis G1 after 70 hrs by resazurin-based spectrophotometric assay. The format is functional, organism-based. To be noted: Giardia duodenalis, G1, 70 h.
Data set [3] relates to Trypanosoma brucei rhodesiense. As to the kind of experiment: Antitrypanosomal activity against bloodstream form of Trypanosoma brucei rhodesiense STIB 900 after 70 hrs by resazurin-based spectrophotometric assay. The following applies: STIB 900, 70 h. The format is functional, organism-based.
The subject of a further data set is L6. Nature of the data set: Cytotoxicity against rat L6 cells after 72 hrs by resazurin-based spectrophotometric assay. The following applies: L6, 72 h. It is filed as cell-based.
Another data set deals with Trypanosoma cruzi. As to the kind of experiment: Antitrypanosomal activity against trypomastigote form of Trypanosoma cruzi Tulahuen C2C4 expressing Lac Z infected in rat L6 cells after 96 hrs by spectrophotometry. To be noted: Tulahuen C2C4, L6, 96 h. The format is functional, organism-based.
Data set [4] is described as follows: Selectivity ratio of IC50 for rat L6 cells to IC50 for Giardia intestinalis G1. It is filed as ADME, cell-based. The following applies: read-out: Ratio IC50.
For data set [5], the system named is Trypanosoma brucei rhodesiense. Nature of the data set: Antitrypanosomal activity against bloodstream form of Trypanosoma brucei rhodesiense STIB 900 after 70 hrs by resazurin-based spectrophotometric assay relative to melarsoprol. The format is functional.
The nature of data set [6]: Inhibition of beta-hematin formation in aqueous acetate buffer. It is filed as functional.
Data set [7] can be described thus: Selectivity ratio of IC50 for rat L6 cells to IC50 for Entamoeba histolytica Hk-9. The format is ADME, cell-based. The following applies: read-out: Ratio IC50.
A short description of data set [8]: Selectivity ratio of IC50 for rat L6 cells to IC50 for Leishmania donovani MHOM-ET-67/L82. It is filed as ADME, cell-based. To be noted: read-out: Ratio IC50.

As for `c1ccc2[nH]c(-c3ccc(OCCCCCCCCCOc4ccc(-c5nc6ccccc6[nH]5)cc4)cc3)nc2c1`, the half-maximal inhibitory concentration (IC50) – broadly, the concentration needed to halve the response being measured – with Plasmodium falciparum turned out to be 290 nM; with Leishmania donovani, 5.93 µM; with Entamoeba histolytica, 30.7 µM; in the data set on Giardia intestinalis, 0.83 µM; in data set [3], 0.81 µM; with L6, 101 µM. Also, the 50% inhibitory concentration (IC50) in the data set with Trypanosoma cruzi is over 165 µM. In addition, the selectivity ratio was determined as 344 in [1], 123 in data set [2] and 123 in [4].
With `c1ccc2[nH]c(-c3ccc(OCCCCCCCCOc4ccc(-c5nc6ccccc6[nH]5)cc4)cc3)nc2c1`, the IC50 in the data set with Plasmodium falciparum turned out to be 300 nM; in the data set with Leishmania donovani, 98.2 µM; in the data set on Entamoeba histolytica, 65.8 µM; with Giardia intestinalis, 10.4 µM; in [3], 39.1 µM; in the data set with L6, 19.8 µM. In the data set with Trypanosoma cruzi, this compound showed an IC50 of 57 µM. Further, the “Ratio IC50” value in data set [5] worked out at 100. Also, the selectivity ratio in data set [1] stood at 67.
Turning to `c1ccc2[nH]c(-c3ccc(OCCCCOc4ccc(-c5nc6ccccc6[nH]5)cc4)cc3)nc2c1`, the IC50 in the data set on Plasmodium falciparum came out at 440 nM; in the data set on Leishmania donovani, 3.25 µM; in the data set on Entamoeba histolytica, 8.13 µM; in the data set with Giardia intestinalis it was 17.9 µM; in [3], 2.76 µM; with L6 it was 7.84 µM. For the same compound, the IC50 in the data set with Trypanosoma cruzi was 5.75 µM. In addition, the selectivity ratio in data set [1] was found to be 18; in data set [7], 1. Also, in [6], the inhibition entry is “Active”.
Consider `c1cc(COc2ccc(-c3nc4ccccc4[nH]3)cc2)cc(COc2ccc(-c3nc4ccccc4[nH]3)cc2)c1`, for which the 50% inhibitory concentration (IC50) with Plasmodium falciparum was 380 nM; with Leishmania donovani, 1.05 µM; in [3], 3.56 µM; with L6, over 172 µM; with Trypanosoma cruzi it was 113 µM. Further, the values for the selectivity ratio in [1] and in data set [8] were over 450 and over 164, respectively.
